Drawing on the OPERA property sets (Mansouri et al. 2018), this text covers logP for 13 molecules.

`CCCCCCNc1cc(-c2n[nH]c(N)n2)ccn1` yielded a lipophilicity (logP) of 3.3. For `Nc1nc(-c2ccnc(NCCCc3ccccc3)c2)n[nH]1` the value was 3.05; for `CNc1cc(-c2n[nH]c(N)n2)ccn1`, 0.69; for `CCCCCCCCCCNc1cc(-c2nnc(N)[nH]2)ccn1`, 4.07. `CCCCNc1cc(-c2n[nH]c(N)n2)ccn1` returned a logP of 2.15. In the case of `CCNc1cc(-c2nc(N)n[nH]2)ccn1` it was 1.13; in that of `Nc1nc(-c2ccnc(NCCc3ccccc3)c2)n[nH]1`, 2.63. For `Nc1n[nH]c(-c2ccnc(NCCO)c2)n1` the value was 0.24; for `COCCNc1cc(-c2nnc(N)[nH]2)ccn1`, 0.94. In the case of `Cc1ccc(CNc2cc(-c3n[nH]c(N)n3)ccn2)cc1` it was 2.69. `Nc1cc(-c2nnc(N)[nH]2)ccn1` showed a logP of 0.11.

As to `C=CCNc1cc(-c2nc[nH]n2)ccn1`, the logP amounted to 1.26. For `CCCNc1cc(-c2nnc(N)[nH]2)ccn1` the value was 1.61.

As a reminder, the logP is a log measure of how a compound divides between an organic and an aqueous phase.
